# According to paper PMC11251039, “Harnessing cholesterol uptake of malaria parasites for therapeutic applications” (EMBO Molecular Medicine, 2024):
# Several values for one entry are separate records, joined by “and”; a condition that tells them apart may be missing. Identical values can stand only once.
# What was measured:
# [1] = tested on: Toxoplasma gondii tachyzoites (RH strain); assay: Toxoplasma growth inhibition assay (tdTomato fluorescence, in HFF cells); assay type: cell-based; conditions: Toxoplasma gondii, HFF, 72 h, read-out: IC50, T. gondii tachyzoite growth inhibition
# [2] = tested on: P. falciparum stage V gametocytes; assay: P. falciparum gametocyte viability assay (MitoTracker, flow cytometry), stage V; assay type: cell-based, Plasmodium falciparum; conditions: 48 h
# Method in brief: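 Magnetically enriched gametocytes, stage III-IV (day 7) or stage V (day 10), were exposed to serially diluted compounds in medium with 50 mM N-acetyl-D-glucosamine for 48 hours at 37 °C, microaerophilic. Staining with 500 nM MitoTracker Deep Red FM and Hoechst, then flow cytometry, gave percentage live versus dead gametocytes.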
# P. berghei liver stages = assay: Plasmodium berghei liver stage growth inhibition assay (luminescence, in Huh7 cells); conditions: for P. berghei liver stage growth, dose-response data points (Figure 3A): replicate data points
# Experimental: Growth inhibition or cell viability were assessed by incubation with a serial dilution of test compounds, solvent controls (DMSO, ethanol, ethyl acetate), or culture media alone in 96-well plates, with detection of fluorescence, luminescence, or absorbance in microplate readers after 24–96 h unless otherwise specified.
# Huh7 cells were seeded at a density of 10,000 cells per well of a 96-well plate, or 20,000 cells per collagen-coated coverslip. After 24 h, test compounds were added the wells were inoculated with P. berghei liver stage sporozoites dissected from infected A. stephensi salivary glands with 5000–10,000 sporozoites per well or 10,000–20,000 sporozoites per coverslip. Uninfected wells served as a control for background luminescence. Luminescence signal was measured 48 h post-invasion by addition of 1:1 ONE-Glo^TM substrate (Promega) with a luminescence microplate reader. Coverslips were fixed, stained, and imaged, with all parasites on each coverslip imaged and delineated as described (Petersen et al, [2017]) using Fiji ImageJ (Schindelin et al, [2012]). Data are presented as a percentage of the size or parasite number of the solvent control to normalize for differences between experiments.
# Growth inhibition data were normalised by subtracting background fluorescence, luminescence, absorbance, or percentage of cells from a no-growth or no-viability control (high drug concentration, no-parasite control, or time = 0 measurement as specified), and expressed as a percentage of the growth or cell percentage in the negative control (culture media alone or solvent control) at the indicated timepoint (or to the highest measurement reached during the assay for Fig. EV3).
# Plasmodium berghei ANKA Bergreen (22) or GFP-Luc (RMgm-29) (23), respectively
# expressing green fluorescent protein (GFP) or a GFP-Luciferase fusion protein, were
# maintained under routine conditions in SWR/J Mus musculus mice and Anopheles stephensi
# Growth inhibition of P. berghei liver-stages was investigated after infection of human
# hepatoma cells (Huh7) and subsequent growth for 48 hours at 37° C, 5% CO2 and 80%
# humidity. The day prior to infection, 10,000 Huh7 cells were seeded in dark-sided 96-well
# microplates (Greiner Bio One). On the day of infection, compounds or solvent controls
# (DMSO) were serially diluted in culture media and 5,000 – 10,000 Bergreen or GFP-Luc
# sporozoites were added per well following dissection from infected A. stephensi salivary
# glands. Uninfected wells served as control for background luminescence. To promote invasion,
# the plates were centrifuged at 1,550 g for 5 minutes. After 60 minutes, the media was
# completely replaced with fresh, prewarmed media with the matching drug concentrations.
# Media was partially replaced with new drug dilutions over the following two days. 48 hours
# post-infection, luminescence signal was measured by addition of 1:1 ONE-GloTM substrate
# (Promega) to the wells, followed by detection at 300 – 700 nm using a Synergy HTX plate
# [3] = tested on: human embryonic kidney cells (HEK293); assay: Human embryonic kidney cell viability assay (MTT); assay type: cell-based; conditions: Homo sapiens, HEK293, 96 h, read-out: IC50, human embryonic kidney cell inhibition (viability)
# Method in brief: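 HEK293 cells, 5,000 per well, exposed to serially diluted compound for 96 hours; 10 µg/mL cycloheximide as background control. Viability by MTT (0.45 mg/mL, 2 h), SDS solubilisation, absorbance at 570 nm.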
# [4] = tested on: human foreskin fibroblasts (HFF); assay: Human foreskin fibroblast growth inhibition assay (SYBR Safe); assay type: cell-based; conditions: Homo sapiens, Fibroblast; 72 h, HFF; read-out: IC50, human fibroblast growth inhibition
# Method in brief: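 About 5000 HFF cells per well incubated with compound serial dilutions for 72 hours at 37 °C, until confluent. Growth quantified by DNA content: freeze-thaw, then SYBR Safe (1/10,000 final) in lysis buffer, fluorescence 490/520 nm. 10 µg/mL cycloheximide defines background (no growth).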
compound,measurement,setting,value
"COc1cc(NC(C)CCCN)c2ncccc2c1 (stereo not drawn) [Primaquine, primaquine, reference compound]",IC50,[1],9.7 µM
same,"Gametocyte stage V viability, percentage of control","[2]; 1.562500000 uM, replicate values, source data Fig. 2D, 1.5625 µM",97.48% and 95.25% and 88.04%
same,IC50,"[2]; Plasmodium falciparum, read-out: IC50, P. falciparum gametocyte stage V inhibition",14.8 µM
same,"P. berghei liver stage growth, dose-response data points (Figure 3A)",P. berghei liver stages; 0.015241580 uM,93.67 and 95.48 and 110.9 and 122 and 82.26 and 95.7 and 96.97 and 92.94 and 110.1
same,"P. berghei liver stage growth, dose-response data points (Figure 3A)",P. berghei liver stages; 0.045724740 uM,108.1 and 96.38 and 105.4 and 91.89 and 98.42 and 97.49 and 70.73 and 69.42 and 92.75
same,"P. berghei liver stage growth, dose-response data points (Figure 3A)",P. berghei liver stages; 0.137174210 uM,105.4 and 121.7 and 113.6 and 95.08 and 83.35 and 110.5 and 75.51 and 85.25 and 113.8
same,Figure 3E dose-response value (replicates),P. berghei liver stages; 0.212890630 uM,110.2 and 105.1 and 104.6 and 108.5 and 84.79 and 105.5 and 104.2 and 95.71 and 86.14 and 93.88 and 93.04
same,"P. berghei liver stage growth, dose-response data points (Figure 3A)",P. berghei liver stages; 0.411522630 uM,105.4 and 115.4 (2×) and 82.34 and 95.47 and 107.6 and 82.44 and 82.72 and 115.2
same,Figure 3E dose-response value (replicates),P. berghei liver stages; 0.425781250 uM,102.3 and 92.15 and 106 and 104.8 and 98.19 and 93.53 and 98.84 and 93.27 and 90.28
same,Figure 3E dose-response value (replicates),P. berghei liver stages; 0.851562500 uM,96.31 and 95.61 and 102.1 and 104.8 and 94.91 and 106 and 91.69 and 92.32 and 88 and 100 and 90.58 and 89.08
same,"P. berghei liver stage growth, dose-response data points (Figure 3A)",P. berghei liver stages; 1.234567900 uM,95.48 and 107.2 and 78.84 and 85.44 and 95.31 and 57.42 and 69.42 and 85.07
same,Figure 3E dose-response value (replicates),P. berghei liver stages; 1.703125000 uM,88.27 and 98.56 and 102.4 and 105.9 and 83.84 and 86.74 and 92.09 and 88.62
same,Figure 3E dose-response value (replicates),P. berghei liver stages; 3.406250000 uM,97.54 and 95.04 and 93.86 and 98.31 and 97.98 and 92.53 and 88.24 and 88.2 and 80.51 and 79.64 and 66.71 and 72.77
same,"P. berghei liver stage growth, dose-response data points (Figure 3A)",P. berghei liver stages; 3.703703700 uM,52.94 and 55.66 and 62.9 and 27.87 and 29.81 and 24.61 and 21.71 and 31.37 and 31.18
same,Figure 3E dose-response value (replicates),P. berghei liver stages; 6.812500000 uM,52.26 and 84.6 and 91.44 and 91.35 and 88.74 and 72.33 and 82.87 and 73.41 and 70.7 and 48.65 and 46.53 and 51.73
same,"P. berghei liver stage growth, dose-response data points (Figure 3A)",P. berghei liver stages; 11.111111100 uM,2.262 and -2.262 (2×) and 1.062 and 1.606 and 2.072 and 3.062 and 2.968 and 4.186
same,Figure 3E dose-response value (replicates),P. berghei liver stages; 13.625000000 uM,24.3 and 46.65 and 52.62 and 55.32 and 16.73 and 22.67 and 37.29 and 44.07 and 37.02 and 20.99 and 23.94 and 27.39
same,Figure 3E dose-response value (replicates),P. berghei liver stages; 27.250000000 uM,0.8156 and 1.015 and 0.9272 and 0.814 and 1.004 and 2.12 and 0.3528 and 0.5411 and 2.525 and 0.8793 and 0.07968 and 0.8298
same,"P. berghei liver stage growth, dose-response data points (Figure 3A)",P. berghei liver stages; 33.333333300 uM,-1.357 (3×) and 0.4403 and 0.2849 and 0.3626 and 1.093 and 1.749 and 0.9997
same,"P. berghei liver stage growth, dose-response data points (Figure 3A)",P. berghei liver stages; 100.000000000 uM,-3.167 and -0.4525 and 0.4525 and -0.0259 and 0.0518 (2×) and -0.03124 (2×) and 0.5311
same,Figure 3E dose-response value (replicates),P. berghei liver stages; 109.000000000 uM,3.02 and 0.4007 and 0.2308 and 0.4951 and 3.634 and 2.894 and 0.4747 and 1.134 and 1.25 and 3.638 and 3.687 and 3.498
same,IC50,"P. berghei liver stages; Plasmodium berghei, Huh-7, 48 h, read-out: IC50, P. berghei liver stage growth inhibition",2.9 µM
same,IC50,[3],10.6 µM
same,IC50,[4],41.8 µM
